# In ChEMBL document CHEMBL5352492, “Application of deep generative model for design of Pyrrolo[2,3-d] pyrimidine derivatives as new selective TANK binding kinase 1 (TBK1) inhibitors” (Eur J Med Chem, 2023):
# Calls of active or inactive are those of the source. The calls are words filed in the database; no cut-off is given here.
# What was measured:
# [1] = molecular target: T1, Serine/threonine-protein kinase TBK1 (Homo sapiens) (UniProt Q9UHD2); assay: Inhibition of TBK1 (unknown origin) incubated at 100 nM for 1 hr in presence of ATP by FRET based Z'-Lyte assay relative to control
# T1 sequence (whole entry): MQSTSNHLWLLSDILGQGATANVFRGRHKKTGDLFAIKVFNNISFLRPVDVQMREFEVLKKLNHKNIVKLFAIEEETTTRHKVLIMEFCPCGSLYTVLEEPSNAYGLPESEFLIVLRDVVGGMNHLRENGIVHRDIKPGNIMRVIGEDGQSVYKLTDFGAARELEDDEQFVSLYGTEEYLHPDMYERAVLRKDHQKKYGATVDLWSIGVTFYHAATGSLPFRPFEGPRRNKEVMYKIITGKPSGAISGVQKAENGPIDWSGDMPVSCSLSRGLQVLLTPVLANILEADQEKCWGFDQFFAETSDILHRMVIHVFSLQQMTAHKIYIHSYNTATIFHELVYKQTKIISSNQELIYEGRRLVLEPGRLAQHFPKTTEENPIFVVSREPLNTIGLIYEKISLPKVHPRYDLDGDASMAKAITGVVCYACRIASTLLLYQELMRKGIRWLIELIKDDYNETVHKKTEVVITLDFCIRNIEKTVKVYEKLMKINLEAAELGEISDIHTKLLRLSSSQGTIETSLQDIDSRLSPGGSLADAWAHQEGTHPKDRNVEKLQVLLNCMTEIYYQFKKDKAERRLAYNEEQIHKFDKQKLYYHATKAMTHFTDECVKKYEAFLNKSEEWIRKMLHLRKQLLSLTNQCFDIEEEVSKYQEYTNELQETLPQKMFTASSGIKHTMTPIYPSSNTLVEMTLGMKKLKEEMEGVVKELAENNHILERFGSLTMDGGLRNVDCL
# [2] = molecular target: T1, Serine/threonine-protein kinase TBK1 (Homo sapiens); assay: Inhibition of TBK1 (unknown origin) incubated at 10 nM for 1 hr in presence of ATP by FRET based Z'-Lyte assay relative to control
# [3] = molecular target: T1, Serine/threonine-protein kinase TBK1 (Homo sapiens); assay: Inhibition of TBK1 (unknown origin) incubated at 1000 nM for 1 hr in presence of ATP by FRET based Z'-Lyte assay relative to control
# [4] = molecular target: T2, Serine/threonine-protein kinase TBK1 (Homo sapiens, UniProt Q9UHD2); assay: Inhibition of TBK1 (unknown origin) incubated for 1 hr in presence of ATP by FRET based Z'-Lyte assay
# T2 sequence (Q9UHD2 whole entry): T1 sequence (whole entry)
# THP1-Blue ISG [5] = assay: Inhibition of LPS-induced ifn-beta in human THP1-Blue ISG cells treated at 1 uM for 2 hrs RTq-PCR analysis; type: functional, cell-based
# RAW264.7 [6] = assay: Inhibition of LPS-induced cxcl10 in mouse RAW264.7 cells treated at 1 uM for 2 hrs RTq-PCR analysis; type: functional, cell-based
# RAW264.7 [7] = assay: Inhibition of LPS-induced ifn-beta in mouse RAW264.7 cells treated at 1 uM for 2 hrs RTq-PCR analysis; type: functional, cell-based
# THP1-Blue ISG [8] = assay: Inhibition of LPS-induced cxcl10 in human THP1-Blue ISG cells treated at 1 uM for 2 hrs RTq-PCR analysis; type: functional, cell-based
SMILES,inhibition [1] [%],inhibition [2] [%],inhibition [3] [%],IC50 [4] [nM],inhibition (THP1-Blue ISG [5]),inhibition (RAW264.7 [6]),inhibition (RAW264.7 [7]),inhibition (THP1-Blue ISG [8])
O=C(NCCCN1C(=O)Cc2cnc(Nc3cccc(CN4CCOCC4)c3)nc21)C1CCC1,< 0,< 0,0.6,–,–,–,–,–
O=C(NCCCn1ccc2cnc(Nc3cccc(CN4CCN(C5COC5)CC4)c3)nc21)C1CCC1,64,14.7,92.3,50,–,–,–,–
O=C(Nc1ccc(-n2ccc3cnc(Nc4cccc(CN5CCOCC5)c4)nc32)nc1)C1CCC1,< 0,< 0,1.8,–,–,–,–,–
COCCN(C)Cc1cccc(Nc2ncc3ccn(CCCNC(=O)C4CCC4)c3n2)c1,68.9,23,91.8,35.7,–,–,–,–
O=C(NCCCn1cnc2cnc(Nc3cccc(CN4CCOCC4)c3)nc21)C1CCC1,< 0,< 0,25.5,–,–,–,–,–
O=C(NCCCn1cc(C2CC2)c2cnc(Nc3cccc(CN4CCOCC4)c3)nc21)C1CCC1,< 0,< 0,< 0,–,–,–,–,–
O=C(NCCCNc1nc(Nc2cccc(CN3CCOCC3)c2)ncc1C1CC1)C1CCC1,–,–,–,–,Active,Active,Active,Active
Cc1cn(CCCNC(=O)C2CCC2)c2nc(Nc3cccc(CN4CCOCC4)c3)ncc12,22.8,< 0,78.7,–,–,–,–,–
O=C(NCCCn1ncc2cnc(Nc3cccc(CN4CCOCC4)c3)nc21)C1CCC1,< 0,< 0,29,–,–,–,–,–
Cc1cc(=O)n(CCCNC(=O)C2CCC2)c2nc(Nc3cccc(CN4CCOCC4)c3)ncc12,< 0,< 0,< 0,–,–,–,–,–
